The nature of experiment [1]: Inhibition of human Cx43 expressed in Escherichia coli LB2003 cells in medium containing 8 mM K+ and 10 uM IPTG by measuring cell growth after 18 hrs by plate reader.
The nature of experiment [2]: Inhibition of human Cx26 expressed in Escherichia coli LB2003 cells in medium containing 4 mM K+ and 500 uM IPTG by measuring cell growth after 18 hrs by plate reader.

Each structure is given as a SMILES string.

`NC[C@H]1O[C@H](O[C@H]2[C@H](O)[C@@H](O[C@H]3O[C@H](COCc4ccc5ccccc5c4)[C@@H](OCc4ccc5ccccc5c4)[C@H](N)[C@H]3O)[C@H](N)C[C@@H]2N)[C@H](O)[C@@H](O)[C@@H]1O`: half-maximal inhibition in experiment [1] (IC50) was put at 6.2 µM. Regarding `NC[C@H]1O[C@H](O[C@H]2[C@H](O)[C@@H](O[C@H]3O[C@H](COc4ccc(-c5nc6ccccc6[nH]5)cc4)[C@@H](O)[C@H](N)[C@H]3O)[C@H](N)C[C@@H]2N)[C@H](O)[C@@H](O)[C@@H]1O`, the IC50 – broadly, the concentration that inhibits the measured activity by half – in experiment [1] worked out at 17.7 µM; in experiment [2], 6 µM. With `Cc1ccc(COC[C@H]2O[C@H](O[C@@H]3[C@@H](O)[C@H](O[C@H]4O[C@H](CN)[C@@H](O)[C@H](O)[C@H]4O)[C@@H](N)C[C@H]3N)[C@H](O)[C@@H](N)[C@@H]2OCc2ccc(C)cc2)cc1`, the IC50 in experiment [1] was 3.1 µM. `NC[C@H]1O[C@H](O[C@H]2[C@H](O)[C@@H](O[C@H]3O[C@H](COCc4ccc(F)cc4)[C@@H](OCc4ccc(F)cc4)[C@H](N)[C@H]3O)[C@H](N)C[C@@H]2N)[C@H](O)[C@@H](O)[C@@H]1O`: the 50% inhibitory concentration (IC50) in experiment [1] was 26.6 µM.

`Cc1ccc(OC[C@H]2O[C@H](O[C@@H]3[C@@H](O)[C@H](O[C@H]4O[C@H](CN)[C@@H](O)[C@H](O)[C@H]4O)[C@@H](N)C[C@H]3N)[C@H](O)[C@@H](N)[C@@H]2O)cc1`: the results for the concentration for half-maximal inhibition (IC50) in experiment [1] and in experiment [2] were 6.2 µM and 49.4 µM, respectively.

For the molecule `N[C@@H]1[C@@H](O)[C@@H](O[C@@H]2[C@@H](O)[C@H](O[C@H]3O[C@H](CNC(=O)CCCc4cc5ccc6cccc7ccc(c4)c5c67)[C@@H](O)[C@H](O)[C@H]3O)[C@@H](N)C[C@H]2N)O[C@H](CO)[C@H]1O`, the IC50 in experiment [1] was 8.6 µM; in experiment [2], 18.6 µM. `NC[C@H]1O[C@H](O[C@H]2[C@H](O)[C@@H](O[C@H]3O[C@H](COCc4ccc(Cl)cc4)[C@@H](OCc4ccc(Cl)cc4)[C@H](N)[C@H]3O)[C@H](N)C[C@@H]2N)[C@H](O)[C@@H](O)[C@@H]1O` had a half-inhibitory concentration (IC50) in experiment [1] of 17.1 µM. Consider `NC[C@H]1O[C@H](O[C@H]2[C@H](O)[C@@H](O[C@H]3O[C@H](COc4ccc(Cl)cc4)[C@@H](O)[C@H](N)[C@H]3O)[C@H](N)C[C@@H]2N)[C@H](O)[C@@H](O)[C@@H]1O`, for which the values for the IC50 in experiment [1] and in experiment [2] were 8.9 µM and 17.2 µM, respectively.

For the molecule `N[C@@H]1[C@@H](O)[C@@H](O[C@@H]2[C@@H](O)[C@H](O[C@H]3O[C@H](CNC(=O)c4ccccc4-c4c5ccc(=O)cc-5oc5cc(O)ccc45)[C@@H](O)[C@H](O)[C@H]3O)[C@@H](N)C[C@H]2N)O[C@H](CO)[C@H]1O`, the values for the IC50 in experiment [1] and in experiment [2] were 8.9 µM and 12.7 µM, respectively. In experiment [1], `NC[C@H]1O[C@H](O[C@H]2[C@H](O)[C@@H](O[C@H]3O[C@H](COCc4cccc(-c5ccccc5)c4)[C@@H](OCc4cccc(-c5ccccc5)c4)[C@H](N)[C@H]3O)[C@H](N)C[C@@H]2N)[C@H](O)[C@@H](O)[C@@H]1O` registered a half-maximal inhibitory concentration (IC50) of 5.5 µM. The same measure, in the same setting: for `COc1ccc(COC[C@H]2O[C@H](O[C@@H]3[C@@H](O)[C@H](O[C@H]4O[C@H](CN)[C@@H](O)[C@H](O)[C@H]4O)[C@@H](N)C[C@H]3N)[C@H](O)[C@@H](N)[C@@H]2OCc2ccc(OC)cc2)cc1` the value was 4.1 µM.

In experiment [2], `CCCCCCCCCCCC(=O)NC[C@H]1O[C@H](O[C@H]2[C@H](O)[C@@H](O[C@H]3O[C@H](CO)[C@@H](O)[C@H](N)[C@H]3O)[C@H](N)C[C@@H]2N)[C@H](O)[C@@H](O)[C@@H]1O` yielded an IC50 of 66.7 µM.

Values taken from BindingDB's records for doi:10.1016/j.ejmech.2020.112602 (Utah State University, 2020).
